Measurements as given in the NIST ThermoML archive (doi:10.1016/j.jct.2018.12.009).

Assay: molar heat capacity at constant volume
Conditions: Mass density=329.2 kg/m3

CC(C)O [propan-2-ol]
molar heat capacity at constant volume [J/K/mol]
Conditions | Fluid (supercritical or subcritical phases) | Liquid
314.29 K | 177.46 | –
314.52 K | 182.81 | –
314.8 K | 184.67 | –
315.05 K | 181.49 | –
315.3 K | 177.88 | –
315.42 K | 176.26 | –
315.61 K | 174.88 | –
315.8 K | 178.6 | –
341.91 K | 203.12 | –
342.08 K | 202.22 | –
342.2 K | 203.54 | –
342.32 K | 207.27 | –
342.49 K | 201.32 | –
342.67 K | 203.72 | –
342.79 K | 202.76 | –
342.91 K | 201.62 | –
343.03 K | 204.08 | –
369.05 K | 225.9 | –
369.16 K | 220.01 | –
369.28 K | 231.31 | –
369.39 K | 222.83 | –
369.5 K | 225.96 | –
369.67 K | 223.55 | –
369.84 K | 221.75 | –
369.96 K | 221.03 | –
370.07 K | 219.47 | –
391.32 K | 243.38 | –
391.53 K | 248.85 | –
391.54 K | 243.44 | –
391.65 K | 246.93 | –
391.76 K | 235.69 | –
391.87 K | 241.16 | –
391.98 K | 242.54 | –
392.09 K | 244.11 | –
392.2 K | 243.2 | –
416.55 K | 258.83 | –
416.65 K | 260.09 | –
416.76 K | 252.52 | –
416.86 K | 257.99 | –
416.97 K | 255.76 | –
417.08 K | 261.47 | –
417.18 K | 252.94 | –
417.29 K | 253.84 | –
417.4 K | 259.73 | –
417.5 K | 261.17 | –
442.12 K | 262.92 | –
442.23 K | 265.86 | –
442.33 K | 272.53 | –
442.43 K | 265.68 | –
442.54 K | 266.76 | –
442.64 K | 267.6 | –
442.74 K | 270.13 | –
442.85 K | 265.86 | –
463.48 K | 270.31 | –
463.58 K | 271.63 | –
463.78 K | 270.31 | –
463.83 K | 274.63 | –
463.97 K | 279.44 | –
464.18 K | 278.72 | –
464.27 K | 280.16 | –
464.42 K | 278.24 | –
464.97 K | 277.34 | –
465.27 K | 272.77 | –
465.34 K | 278.54 | –
482.51 K | 288.1 | –
482.6 K | 289.9 | –
482.7 K | 288.46 | –
482.8 K | 287.73 | –
482.89 K | 288.34 | –
482.99 K | 292 | –
483.09 K | 287.19 | –
483.18 K | 291.64 | –
500.85 K | 316.94 | –
500.95 K | 311.35 | –
501.04 K | 310.87 | –
501.14 K | 313.94 | –
501.23 K | 314.06 | –
501.33 K | 310.75 | –
501.42 K | 316.76 | –
501.53 K | 318.08 | –
501.62 K | 320.49 | –
501.81 K | 316.64 | –
501.9 K | 317.06 | –
503.92 K | 322.05 | –
504.02 K | 325.72 | –
504.11 K | 323.31 | –
504.31 K | 318.86 | –
504.5 K | 325.72 | –
504.59 K | 319.65 | –
504.98 K | 328.36 | –
505.08 K | 326.92 | –
505.27 K | 325.96 | –
505.37 K | 325.35 | –
506.43 K | 328.06 | –
506.53 K | 330.64 | –
506.62 K | 335.93 | –
506.72 K | 332.69 | –
506.82 K | 332.27 | –
506.97 K | 330.22 | –
507.11 K | 342.54 | –
507.2 K | 339.6 | –
507.3 K | 339.42 | –
507.4 K | 335.93 | –
507.5 K | 343.02 | –
507.59 K | 338.94 | –
507.69 K | 354.86 | –
507.79 K | 347.95 | –
507.89 K | 352.76 | –
508.04 K | 358.17 | –
508.16 K | 363.76 | 218.14
508.18 K | – | 208.53
508.28 K | – | 195.91
508.37 K | – | 187.8
508.47 K | – | 185.69
508.57 K | – | 186.9
508.67 K | – | 192.91
508.76 K | – | 186.9
509.35 K | – | 179.56
509.45 K | – | 180.16
509.55 K | – | 178.84
509.64 K | – | 179.98
509.79 K | – | 177.46
509.99 K | – | 177.28
510.14 K | – | 178.12
510.23 K | – | 177.94
510.33 K | – | 176.68
510.48 K | – | 178.6
516.9 K | – | 176.74
516.99 K | – | 176.8
517.08 K | – | 176.8
517.27 K | – | 172.17
521.87 K | – | 173.13
521.96 K | – | 168.57
522.14 K | – | 173.19
522.33 K | – | 168.63
522.42 K | – | 171.63
522.51 K | – | 173.85
522.6 K | – | 175.18
530.01 K | – | 168.39
532.04 K | – | 168.27
535.11 K | – | 168.33
540.06 K | – | 168.39
545.13 K | – | 168.63
560.04 K | – | 169.77
570.09 K | – | 173.85
580.16 K | – | 174.22
590.07 K | – | 176.38
600.1 K | – | 178.6
